Experimental data published in ChEMBL document CHEMBL4619803, “Stepwise Design of γ-Secretase Modulators with an Advanced Profile by Judicious Coordinated Structural Replacements and an Unconventional Phenyl Ring Bioisostere” (J Med Chem, 2020).
Converted amounts (≈) assume the structure as drawn. “And” between values parts separate entries of the source, which are not always exact repeats. Identical values can stand only once.

Experiments:
Gamma-secretase = assay: (§1) Modulation of gamma secretase in human H4 cells over expressing human APP695 harboring K595N/M596L Swedish double mutant assessed as reduction in Abeta42 production after 24 hrs by Alphalisa assay; assay type: cell-based
[1] = Octanol/water distribution co-efficient, log D of the compound at pH 7.4; assay type: physicochemical
[2] = Solubility of compound by lyophilisation solubility assay; assay type: physicochemical
[3] = Clearance in mouse hepatocytes assessed per million cells; assay type: ADME, cell-based, Hepatocyte; conditions: read-out: CLH
[4] = Fraction unbound in mouse plasma; assay type: ADME, cell-free
[5] = Clearance in human hepatocytes assessed per million cells; assay type: ADME, cell-based, Hepatocyte; conditions: read-out: CLH
[6] = Fraction unbound in human plasma; assay type: ADME, cell-free
[7] = (§2) Modulation of mouse gamma secretase assessed as reduction in Abeta42 production
[8] = target: Phosphatidylinositol 4-kinase beta (Homo sapiens, UniProt Q9UBF8); assay: Binding affinity to PIK4CB (unknown origin); assay type: ADME
Chain of Phosphatidylinositol 4-kinase beta (Q9UBF8 whole entry): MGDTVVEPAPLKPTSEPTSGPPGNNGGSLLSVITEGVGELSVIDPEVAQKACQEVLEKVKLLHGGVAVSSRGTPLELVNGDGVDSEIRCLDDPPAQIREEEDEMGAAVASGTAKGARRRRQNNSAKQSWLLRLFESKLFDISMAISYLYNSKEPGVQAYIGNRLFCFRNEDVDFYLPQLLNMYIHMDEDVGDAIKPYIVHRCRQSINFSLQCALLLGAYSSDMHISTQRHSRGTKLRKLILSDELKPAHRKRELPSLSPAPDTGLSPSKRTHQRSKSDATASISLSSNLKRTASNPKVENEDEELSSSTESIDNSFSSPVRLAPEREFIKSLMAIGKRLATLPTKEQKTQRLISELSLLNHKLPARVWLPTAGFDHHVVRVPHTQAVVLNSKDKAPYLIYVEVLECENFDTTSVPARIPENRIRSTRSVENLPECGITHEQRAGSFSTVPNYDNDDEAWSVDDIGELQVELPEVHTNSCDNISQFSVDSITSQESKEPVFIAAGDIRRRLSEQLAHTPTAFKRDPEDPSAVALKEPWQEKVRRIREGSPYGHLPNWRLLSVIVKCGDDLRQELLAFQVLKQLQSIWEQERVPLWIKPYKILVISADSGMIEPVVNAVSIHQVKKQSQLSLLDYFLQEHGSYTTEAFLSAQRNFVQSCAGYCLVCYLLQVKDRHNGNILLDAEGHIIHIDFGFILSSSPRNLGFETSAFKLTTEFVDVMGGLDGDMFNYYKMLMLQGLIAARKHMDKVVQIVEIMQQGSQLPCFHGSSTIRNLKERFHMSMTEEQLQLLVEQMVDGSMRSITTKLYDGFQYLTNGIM

[9] = Solubility in fed state simulated intestinal fluids; assay type: physicochemical; conditions: simulated gi fluid
[10] = Cytotoxicity against human embryonic stem cells assessed as reduction in cell viability; assay type: cell-based
[11] = Clearance in rat hepatocytes assessed per million cell; assay type: ADME, cell-based, Hepatocyte; conditions: read-out: CLH
[12] = Thermodynamic solubility of the compound; assay type: physicochemical
Keratinocyte = assay: Phototoxicity in human Keratinocytes in presence of UVA at 320 to 400 nm; assay type: cell-based; conditions: light or radiation study
[13] = Mutagenicity in Salmonella typhimurium by Ames test; assay type: toxicity; conditions: salmonella enterica subsp. enterica serovar typhimurium
Melanocyte = assay: Phototoxicity in human Melanocytes in presence of UVA at 320 to 400 nm; assay type: cell-based; conditions: light or radiation study
[14] = target: Gamma-secretase (Homo sapiens) (UniProt Q96BI3+Q9NZ42+Q8WW43+P49768+Q92542+P49810); assay: as §1; assay type: cell-based
[15] = target: Voltage-gated inwardly rectifying potassium channel KCNH2 (Homo sapiens, UniProt Q12809); assay: (§3) Inhibition of human ERG
Chain of Voltage-gated inwardly rectifying potassium channel KCNH2 (Q12809 whole entry): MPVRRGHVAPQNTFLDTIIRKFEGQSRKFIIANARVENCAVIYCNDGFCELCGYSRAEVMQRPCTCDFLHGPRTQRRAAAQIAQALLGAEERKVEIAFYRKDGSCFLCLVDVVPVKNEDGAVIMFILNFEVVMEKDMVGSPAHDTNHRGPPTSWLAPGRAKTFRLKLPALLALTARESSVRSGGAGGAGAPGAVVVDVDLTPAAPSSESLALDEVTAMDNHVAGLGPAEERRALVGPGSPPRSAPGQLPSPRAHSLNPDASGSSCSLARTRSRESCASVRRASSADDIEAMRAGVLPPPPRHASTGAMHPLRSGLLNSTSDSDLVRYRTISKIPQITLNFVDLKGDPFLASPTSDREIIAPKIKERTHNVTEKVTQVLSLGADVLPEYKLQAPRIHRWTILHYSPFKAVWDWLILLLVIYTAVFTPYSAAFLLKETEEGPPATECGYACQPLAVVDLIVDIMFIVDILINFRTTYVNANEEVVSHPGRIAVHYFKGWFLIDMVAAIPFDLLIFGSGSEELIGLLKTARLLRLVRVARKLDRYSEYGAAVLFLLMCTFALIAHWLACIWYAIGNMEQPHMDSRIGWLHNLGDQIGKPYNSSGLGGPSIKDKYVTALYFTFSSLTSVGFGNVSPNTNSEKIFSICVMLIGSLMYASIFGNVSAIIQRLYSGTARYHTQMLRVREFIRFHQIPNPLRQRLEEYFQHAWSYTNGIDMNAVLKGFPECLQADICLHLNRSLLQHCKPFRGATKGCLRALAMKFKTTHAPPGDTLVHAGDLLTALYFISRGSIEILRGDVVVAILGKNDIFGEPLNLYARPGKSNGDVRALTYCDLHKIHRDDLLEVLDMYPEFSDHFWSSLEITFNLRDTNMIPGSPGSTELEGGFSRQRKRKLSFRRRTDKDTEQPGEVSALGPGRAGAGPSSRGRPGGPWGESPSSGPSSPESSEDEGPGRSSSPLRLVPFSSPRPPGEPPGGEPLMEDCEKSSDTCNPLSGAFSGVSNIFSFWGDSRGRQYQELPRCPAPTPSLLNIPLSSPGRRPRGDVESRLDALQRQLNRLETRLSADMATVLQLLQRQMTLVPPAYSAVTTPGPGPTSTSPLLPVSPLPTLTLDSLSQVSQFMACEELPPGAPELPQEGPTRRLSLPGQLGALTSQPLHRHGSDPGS

hERG (KCNH2) = hERG (KCNH2) (Homo sapiens, UniProt Q12809); assay: as §3; conditions: human
Chain of hERG (KCNH2) (Q12809 whole entry): as above

[16] = Fraction unbound in rat plasma; assay type: ADME, cell-free
[17] = Solubility of the compound in fasted state simulated intestinal fluid; assay type: physicochemical; conditions: simulated gi fluid
Mus musculus [18] = assay: In vivo modulation of gamma secretase in APP-Swedish transgenic mouse assessed as reduction in Abeta42 production by measuring remaining Abeta42 level at 10 mg/kg, po measured after 4 hrs by ELISA or AlphaLISA assay relative to control; assay type: functional
[19] = Ratio of IC50 for dark toxicity in human Keratinocytes to IC50 for phototoxicity in human Keratinocytes in presence of UVA at 320 to 400 nm; assay type: cell-based, Keratinocyte; conditions: read-out: Ratio IC50
Mus musculus [20] = assay: In vivo modulation of gamma secretase in APP-Swedish transgenic mouse assessed as reduction in Abeta42 production by measuring remaining Abeta42 level at 1 mg/kg, po measured after 4 hrs by ELISA or AlphaLISA assay relative to control; assay type: functional
Mus musculus [21] = assay: In vivo modulation of gamma secretase in APP-Swedish transgenic mouse assessed as reduction in Abeta42 production by measuring remaining Abeta42 level at 3 mg/kg, po measured after 4 hrs by ELISA or AlphaLISA assay relative to control; assay type: functional
[22] = Covalent protein binding in human liver microsomes assessed per mg protein in presence of NADPH; assay type: ADME, Microsome
Mus musculus [23] = species on record: Mus musculus; assay: as §2
[24] = Ratio of IC50 for dark toxicity in human Melanocytes to IC50 for phototoxicity in human Melanocytes in presence of UVA at 320 to 400 nm; assay type: cell-based, Melanocyte; conditions: read-out: Ratio IC50

| Compound | IC50 (Gamma-secretase) | logD [1] | solubility [2] | hepatocyte CLint [3] | fraction unbound [4] | hepatocyte CLint [5] | fraction unbound [6] | IC50 [7] | Kd [8] | also measured |
| --- | --- | --- | --- | --- | --- | --- | --- | --- | --- | --- |
| Cc1nnc(N2C[C@H]3CC[C@@H](C2)[C@@H]3Nc2nc3c(OC(C)C(F)(F)F)cccn3n2)o1 (stereo partly drawn) | 108 nM | 2.68 | 346 µg/mL (≈ 791 µM) |  |  |  |  |  |  |  |
| Cc1nsc(N2C[C@H]3CC[C@@H](C2)[C@@H]3Nc2nc3c(OC(F)(F)F)cccn3n2)n1 | 61 nM | 3.3 | 102 µg/mL (≈ 240 µM) |  |  |  |  |  |  |  |
| Cc1nsc(N2C[C@H]3CC[C@@H](C2)[C@@H]3Nc2nc3c(OCCCC(F)(F)F)cccn3n2)n1 | 14 nM | 3.76 to 3.9 | 0.2 to 1 µg/mL (≈ 0.428 to 2.14 µM) |  |  |  |  |  |  |  |
| Cc1nsc(N2C[C@H]3CC[C@@H](C2)[C@@H]3Nc2nc3c(O[C@@H](C)C(F)(F)F)cccn3n2)n1 | 16 nM | 3.69 | 78 µg/mL (≈ 172 µM) | 10 µL/min/1e6 cells | 0.06 | 3.1 µL/min/1e6 cells | 0.028 |  |  |  |
| Cc1cc(N2C[C@H]3CC[C@@H](C2)[C@@H]3Nc2nc3c(OCC(F)(F)F)ccc(C(F)(F)F)n3n2)sn1 | 2 nM | 4.1 | 0.6 µg/mL (≈ 1.18 µM) | 19 µL/min/1e6 cells |  | 2 µL/min/1e6 cells | 0.002 | 2 nM | 40000 to 100000 nM |  |
| Cc1nnc(N2C[C@H]3CC[C@@H](C2)[C@@H]3Nc2nc3c(OC(C)C(F)(F)F)ccc(C(F)(F)F)n3n2)o1 (stereo partly drawn) | 27 nM | 3.58 | 77 µg/mL (≈ 152 µM) | 1.6 µL/min/1e6 cells | 0.044 | 1 µL/min/1e6 cells | 0.028 | 20 nM | > 40000 nM |  |
| Cc1noc(N2C[C@H]3CC[C@@H](C2)[C@@H]3Nc2nc3c(OCC(F)(F)F)ccc(C(F)(F)F)n3n2)n1 | 33 nM | 3.79 | 55 µg/mL (≈ 112 µM) | 8.5 µL/min/1e6 cells | 0.031 | 1 µL/min/1e6 cells | 0.017 | 20 nM and 12 nM | > 40000 nM | solubility [9]: 92 µg/mL (≈ 187 µM); Activity [10]: Non-Toxic; hepatocyte CLint [11]: 6.9 µL/min/1e6 cells; Therm solubility [12]: 5 µg/mL; IC50 (Keratinocyte): 33000 nM; Activity [13]: Non-Toxic; IC50 (Melanocyte): 33000 nM; fIC50 [14]: 21 nM; IC50 [15]: 8750 nM; IC20 (hERG (KCNH2)): 3500 nM; fraction unbound [16]: 0.046; solubility [17]: 12 µg/mL (≈ 24.4 µM) |
| Cc1nsc(N2C[C@H]3CC[C@@H](C2)[C@@H]3Nc2nc3c(OCCC(F)(F)F)cccn3n2)n1 | 14 nM | 3.36 | 1.7 µg/mL (≈ 3.75 µM) | 21 µL/min/1e6 cells | 0.0521 | 1.3 µL/min/1e6 cells | 0.03 |  |  |  |
| FC(F)(F)COc1cccn2nc(N[C@@H]3[C@@H]4CC[C@H]3CN(c3ccnc(C(F)(F)F)c3)C4)nc12 | 24 nM | 4.04 | 11 µg/mL (≈ 22.6 µM) | 9 µL/min/1e6 cells | 0.02 | 1 µL/min/1e6 cells | 0.012 | 21 nM | 250 nM |  |
| Cc1noc(N2C[C@H]3CC[C@@H](C2)[C@@H]3Nc2nc3c(OCC(F)(F)F)cccn3n2)n1 | 114 nM | 1.79 | 55 to 265 µg/mL (≈ 130 to 626 µM) | 4.6 µL/min/1e6 cells | 0.095 |  |  | > 400 nM |  |  |
| Cc1cc(N2C[C@H]3CC[C@@H](C2)[C@@H]3Nc2nc3c(O[C@@H](C)C(F)(F)F)cccn3n2)sn1 | 6 nM | 3.81 | 6.3 µg/mL (≈ 13.9 µM) | 36 µL/min/1e6 cells | 0.034 | 3.1 µL/min/1e6 cells | 0.01 |  | 85 nM |  |
| O=S(=O)(N[C@H]1CC[C@@](c2cc(F)ccc2F)(S(=O)(=O)c2ccc(Cl)cc2)CC1)C(F)(F)F |  |  |  |  |  |  |  |  |  | remaining Abeta42 level (% of control) (Mus musculus [18]): 24 - 28% |
| Cc1noc(N2C[C@H]3CC[C@@H](C2)[C@@H]3Nc2nc3c(OCC(F)(F)C(F)(F)F)cccn3n2)n1 | 20 nM | 3.57 | 144 µg/mL (≈ 304 µM) | 11 µL/min/1e6 cells | 0.061 | 1 µL/min/1e6 cells | 0.055 | 17 nM |  |  |
| Cc1nsc(N2C[C@H]3CC[C@@H](C2)[C@@H]3Nc2nc3c(OCC(F)(F)F)cccn3n2)n1 | 21 nM | 3.17 | 198 µg/mL (≈ 451 µM) | 4 to 6.4 µL/min/1e6 cells | 0.06 to 0.101 | 1.3 µL/min/1e6 cells | 0.028 | 9 nM | 150 nM | selectivity ratio [19]: 1.1; IC50 (Keratinocyte): 443000 nM; Activity (Mus musculus [20]): 59%; IC50 (Melanocyte): 443000 nM; remaining Abeta42 level (% of control) (Mus musculus [21]): 33%; fIC50 [14]: 12 nM; PB [22]: 30 pmol; fIC50 (Mus musculus [23]): 5 nM; IC50 [15]: > 10000 nM; IC20 (hERG (KCNH2)): 4500 nM; remaining Abeta42 level (% of control) (Mus musculus [18]): 15%; selectivity ratio [24]: 1.1 |
| COc1cccn2nc(N[C@@H]3[C@@H]4CC[C@H]3CN(c3nc(C)ns3)C4)nc12 | 231 nM | 2.59 | 396 µg/mL (≈ 1070 µM) | 27 µL/min/1e6 cells | 0.16 | 10 µL/min/1e6 cells | 0.12 |  |  |  |
| Cc1nsc(N2C[C@H]3CC[C@@H](C2)[C@@H]3Nc2nc3c(OCC4COC4)cccn3n2)n1 | 49 nM | 2.26 | 456 µg/mL (≈ 1070 µM) |  |  |  |  |  |  |  |
| Cc1cc(N2C[C@H]3CC[C@@H](C2)[C@@H]3Nc2nc3c(OCC(F)(F)C(F)(F)F)cccn3n2)on1 | 7 nM | 4.1 | 11 µg/mL (≈ 23.3 µM) | 34 µL/min/1e6 cells | 0.032 | 4 µL/min/1e6 cells | 0.02 | 3 nM |  |  |
| Cc1cc(N2C[C@H]3CC[C@@H](C2)[C@@H]3Nc2nc3c(OCC(F)(F)F)cccn3n2)sn1 | 4 nM | 3.9 to 3.99 | 31 µg/mL (≈ 70.7 µM) | 15 µL/min/1e6 cells | 0.018 | 3.3 µL/min/1e6 cells | 0.017 | 4 nM | 120 nM | selectivity ratio [19]: 1; IC50 (Keratinocyte): > 137000 nM; Activity (Mus musculus [20]): 75%; IC50 (Melanocyte): > 137000 nM; remaining Abeta42 level (% of control) (Mus musculus [21]): >=47 - 50%; fIC50 [14]: 3 nM; PB [22]: 96 pmol; fIC50 (Mus musculus [23]): 3 nM; IC50 [15]: 2900 nM; IC20 (hERG (KCNH2)): 900 nM; remaining Abeta42 level (% of control) (Mus musculus [18]): >50%; selectivity ratio [24]: 1 |
